# Literature values, collected in patent US8657798B2, “Anti-inflammatory analgesic adhesive patch for external use” (Teikoku Seiyaku Co., Ltd., priority 2010, dated 2014).
# Details: compared with diclofenac sodium
substance,measurement,value
Diclofenac hydroxyethylpyrrolidine,water solubility,better water solubility than diclofenac sodium
